Where “and” joins values, the source holds several entries; their conditions need not be identical. Equal entries are not always repeated. Structures can show the parent of a compound that is named as a salt.
What was measured:
HCT-116 cells = test: Nude mouse xenograft model, HCT-116 (s.c.); format: in vivo, nude mice; settings: HCT-116 xenograft; i.p. 75 mpk/day
Text: Anti-tumor activity in nude mouse xenograft model—Female athymic nude (nu/nu) mice, 5-6 weeks old, were purchased from Charles River (Wilmington, Mass.) and allowed to acclimate in the animal facility for one week. After harvesting, A-549, SNB-19, ACHN, and HCT-116 cells were, resuspended in sterile PBS, and injected s.c. into the right and left flanks (10×10^6 cells per flank) of the mice as previously described (Sun et al., 2005). For MDA-MB-231, cells were harvested and resuspended in PBS (10×10^6 cells per 50 μl) and an equal volume of Matrigel (BD Biosciences, San Jose, Calif.). 100 μl of MDA-MB-231 cells in PBS/Matrigel were injected s.c. into the mammary fat pads between the 2nd and 3rd nipples on each side of the mice. Once the tumors reached approximately 200-300 mm^3 the mice were randomized and treated i.p. with 0.1 ml vehicle (PBS) or ARA-211. Each treatment group consisted of five mice (2 tumors per mouse, a total of 10 tumors). The tumor volumes were determined by measuring the length (l) and width (w) and calculating the volume (V=w^2l/2). Statistical significance between the control and treated animals was determined using a student's t test.

SNB-19 cells [1] = test: Apoptosis assay (Cell Death Detection ELISA), SNB-19; format: cell-based, human; settings: 48 hours, two single values
Procedure: (§1) Apoptosis Assay—Apoptosis was analyzed using the Cell Death Detection ELISA (Roche, Indianapolis, Ind.) measuring cytoplasmic histone-associated mono- and oligonucleosome DNA fragments. Procedures were carried out according to the manufacturers protocol. Briefly, 1×10^5 cells were plated in 60 mm dishes and treated with various doses of ARA-211 or vehicle for 48 hours. Cells were lysed with the provided lysis buffer and lysate was incubated on the ELISA plate for 1 hour to capture the histone associated DNA indicative of apoptotic cells. Anti-DNA peroxidase conjugated antibody was added to detect the cleaved DNA and the microplate was washed and developed with ABTS substrate which was quantitated by microplate reader at 405 nm.

Rap-1 = Rap-1 activation assay, ACHN cells; format: cell-based, human
Procedure: The effect of B2AR stimulation on Rap1 was investigated using the following methods: A Rap-1 activation assay kit (Upstate, Temecula, Calif.) was used according to protocol to determine if stimulation of the B2AR by ARA-211, and subsequent downstream signaling resulting in inhibition of P-Erk 1/2, is mediated by activation of Rap-1 directly by the Rap-1 guanine nucleotide exchange factor Epac. […] Cells were incubated with drugs for 1 hour unless noted otherwise. Cells were then lysed, the positive control lysate was incubated with 10 mM EDTA and 100 μM GTPγS and incubated for 30 minutes to load GTP onto Rap-1. Lysates from all samples were then incubated with 25 μg GST-RalGDS-Rap-1 binding domain beads for 45 minutes, washed with assay buffer 3×, resuspended in 40 μl of 2×Laemmli sample buffer and boiled for 5 minutes. Samples were resolved by SDS-PAGE electrophoresis, transferred to nitrocellulose, blotted overnight with 1 μ/ml polyclonal anti-Rap-1, and visualized by chemiluminescence.

P-Akt = P-Akt levels (Western blotting), MDA-MB-231; format: cell-based, human
Procedure: (§2) Western Blotting—Treated cell samples were lysed in 30 mM HEPES, 10 mM NaCl, 5 mM MgCl2, 25 mM NaF, 1 mM EGTA, 1% Triton-X-100, 10% Glycerol, 2 mM Sodium orthovanidate, 10 μg/mL aprotinin, 10 μg/mL soybean trypsin inhibitor, 25 μg/mL leupeptin, 2 mM phenylmethylsulfonylfluoride (PMSF), 6.4 mg/mL p-nitrophenylphosphate for 30 minutes at 4° C., and proteins run on SDS-PAGE gels then transferred to nitrocellulose membranes. Membranes were blocked in either 5% milk in PBS, pH 7.4, containing 0.1% Tween-20 (PBS-T) or 1% BSA in TBS, pH 7.5, containing 0.1% Tween-20 (TBS-T). Phospho-STAT3 and phospho-AKT antibodies were diluted in 1% BSA in TBS-T while phospho-c-Raf, phospho-Mek, and phospho-p44/p42 MAPK antibodies (Cell Signaling) were diluted in 5% milk in PBS-T for either 1 hour at room temperature or overnight at 4° C. HRP-conjugated secondary antibodies (Jackson ImmunoResearch, West Grove, Pa.) were diluted in 5% milk in PBS-T or TBS-T at a 1:1000 dilution for one hour at room temperature. Western blots results were visualized using enhanced chemiluminescence. Stripping of the membranes for reblotting was done using stripping buffer (62.5 mM Tris pH 7.6, 2% SDS, 0.7% 2-mercaptoethanol) at 50° C. for 30 minutes.

A-549 cells [2] = test: Apoptosis assay (Cell Death Detection ELISA), A-549; format: cell-based, human; settings: 48 hours, two single values, dihydrochloride
Procedure: as §1

SNB-19 cells [3] = test: Anchorage-independent growth (soft agar assay), SNB-19; format: cell-based, human
Procedure: Soft Agar Assay—Anchorage independent growth assays were performed as previously described (Lerner et al., 1997). Briefly, agar was diluted to 0.3% in propagation media containing 20,000 cells and either vehicle or ARA-211 and 1 ml of cell/agar mixture plated on top of 2 ml of a 0.6% layer of agar in medium alone. Cells were grown for three to four weeks at 37° C., 10% Co2 and were fed weekly with 100 μl per well of media/treatment. Quantification of colonies was done using a GS-700 scanning densitometer.

P-c-Raf-1 = P-c-Raf-1 levels (Western blotting), MDA-MB-231; format: cell-based, human
Procedure: as §2

A-549 cells [4] = test: Anchorage-dependent growth (MTT assay), A-549; format: cell-based, human
Procedure: MTT Assay—2000 cells per well were plated into 96 well tissue culture plates, and the cells were allowed to attach overnight at 37° C. with 10% CO2. Cells were then treated with increasing concentrations of ARA-211, or vehicle (DMSO) and incubated for four days. At that time treatment medium was removed and replaced with 100 μl of lmg/ml MTT (Sigma-Aldrich, St. Louis, Mo.) in media and incubated at 37° C., 10% CO2 for 3 hours. After 3 hours the MTT media was removed and replaced with 100 μl/well of DMSO, rocked at room temperature for 5 minutes, then absorbance read at 540 nm on a micro-plate reader.

P-Erk 1/2 = P-Erk 1/2 levels (Western blotting), SNB-19; format: cell-based, human
Procedure: as §2

P-STAT3 = P-STAT3 levels (Western blotting), MDA-MB-231; format: cell-based, human
Procedure: as §2

In the case of `CC(C)(C)NCC(O)c1ccc(O)c(CO)n1` (centres unmarked) [ARA-211, 2-hydroxymethyl-3-hydroxy-6-(1-hydroxy-2-tert-butylaminoethyl) pyridine, dihydrochloride], the growth of tumors (HCT-116 cells) is reported as “is not affected”, the “Apoptosis (% Induction)” value (SNB-19 cells [1]) is reported as 0, 0% and the “Rap-1 activation (GTP-loaded Rap-1)” value (Rap-1; 10 μM, 1 hour) is reported as “activated Rap-1”. The “Rap-1 activation after blocking PKA kinase activity” value (Rap-1; pre-treatment with 10 μM H89 (1 hr) followed by ARA-211) was “had no effect on the ability of ARA-211 to stimulate Rap-1 activation”, the P-Akt levels (P-Akt) was “not” and the “Apoptosis (% Induction)” value (A-549 cells [2]) was 3.1% and 2.2%. For the same molecule, the “Anchorage Independent Growth (% Inhibition)” value (SNB-19 cells [3]) was 5.1 ± 5.0%, the P-c-Raf-1 levels (P-c-Raf-1) was “not” and the “Anchorage Dependent Growth (% Inhibition)” value (A-549 cells [4]) was 9.6 ± 6.1%. The “P-Erk ½ (% Inhibition)” value (P-Erk 1/2) was 0% and the P-STAT3 levels (P-STAT3) was “not”.
